In this series the test system is CCRIS mutagenicity, Ames/micronucleus/aberration tests. Put plainly: CCRIS mutagenicity studies.

Activity calls are given as the source filed them. No rule for the calls is given here.

Take `C=CCN(CC=C)CC=C`: the mutagenic call is, setting by setting: (Test System: AMES SALMONELLA TYPHIMURIUM, Strain/Indicator: TA98, Metabolic Activation: HAMSTER, LIVER, S-9, AROCLOR 1254 (10%), Method: PREINCUBATION) “inactive; negative”; (Test System: AMES SALMONELLA TYPHIMURIUM, Strain/Indicator: TA98, Metabolic Activation: NONE, Method: PREINCUBATION) “inactive; negative”; (Test System: AMES SALMONELLA TYPHIMURIUM, Strain/Indicator: TA98, Metabolic Activation: RAT, LIVER, S-9, AROCLOR 1254 (10%), Method: PREINCUBATION) “inactive; negative”; (Test System: AMES SALMONELLA TYPHIMURIUM, Strain/Indicator: TA100, Metabolic Activation: HAMSTER, LIVER, S-9, AROCLOR 1254 (10%), Method: PREINCUBATION) “inactive; negative”; (Test System: AMES SALMONELLA TYPHIMURIUM, Strain/Indicator: TA100, Metabolic Activation: NONE, Method: PREINCUBATION) “inactive; negative”; (Test System: AMES SALMONELLA TYPHIMURIUM, Strain/Indicator: TA100, Metabolic Activation: RAT, LIVER, S-9, AROCLOR 1254 (10%), Method: PREINCUBATION) “inactive; negative”. The mutagenic call is, setting by setting: (Test System: AMES SALMONELLA TYPHIMURIUM, Strain/Indicator: TA1535, Metabolic Activation: HAMSTER, LIVER, S-9, AROCLOR 1254 (10%), Method: PREINCUBATION) “inactive; negative”; (Test System: AMES SALMONELLA TYPHIMURIUM, Strain/Indicator: TA1535, Metabolic Activation: NONE, Method: PREINCUBATION) “inactive; negative”; (Test System: AMES SALMONELLA TYPHIMURIUM, Strain/Indicator: TA1535, Metabolic Activation: RAT, LIVER, S-9, AROCLOR 1254 (10%), Method: PREINCUBATION) “inactive; negative”; (Test System: AMES SALMONELLA TYPHIMURIUM, Strain/Indicator: TA1537, Metabolic Activation: HAMSTER, LIVER, S-9, AROCLOR 1254 (10%), Method: PREINCUBATION) “inactive; negative”; (Test System: AMES SALMONELLA TYPHIMURIUM, Strain/Indicator: TA1537, Metabolic Activation: NONE, Method: PREINCUBATION) “inactive; negative”; (Test System: AMES SALMONELLA TYPHIMURIUM, Strain/Indicator: TA1537, Metabolic Activation: RAT, LIVER, S-9, AROCLOR 1254 (10%), Method: PREINCUBATION) “inactive; negative”.
Consider `Cc1cccc2c1cc1ccc3cccc4ccc2c1c34`, for which the mutagenic call reads like this: (Test System: AMES SALMONELLA TYPHIMURIUM, Strain/Indicator: TA100, Metabolic Activation: RAT, INTACT HEPATOCYTES, AROCLOR 1254, Method: PREINCUBATION) “inactive; negative”; (Test System: AMES SALMONELLA TYPHIMURIUM, Strain/Indicator: TA100, Metabolic Activation: RAT, NADPH-FORTIFIED HOMOGENIZED HEPATOCYTES, AROCLOR 1254, Method: PREINCUBATION) “active; positive”.
For the molecule `Cc1ccc2c(c1)C(C)c1cc(C)ccc1-2`, the mutagenic call reads like this: (Test System: AMES SALMONELLA TYPHIMURIUM, Strain/Indicator: TA98, Metabolic Activation: RAT, LIVER, S-9, AROCLOR 1254, Method: STANDARD PLATE) “inactive; negative”; (Test System: AMES SALMONELLA TYPHIMURIUM, Strain/Indicator: TA100, Metabolic Activation: RAT, LIVER, S-9, AROCLOR 1254, Method: STANDARD PLATE) “inactive; negative”.
In the case of `CCCCNN`, the mutagenic call reads like this: (Test System: AMES SALMONELLA TYPHIMURIUM, Strain/Indicator: TA100, Metabolic Activation: NONE, Method: PREINCUBATION (11 HR GROWTH PERIOD FOR BACTERIA)) “active; positive”; (Test System: AMES SALMONELLA TYPHIMURIUM, Strain/Indicator: TA100, Metabolic Activation: RAT, LIVER, S-9, PCB, Method: PREINCUBATION (11 HR GROWTH PERIOD FOR BACTERIA)) “inactive; negative”; (Test System: AMES SALMONELLA TYPHIMURIUM, Strain/Indicator: TA102, Metabolic Activation: NONE, Method: PREINCUBATION (5 OR 7 HR GROWTH PERIOD FOR BACTERIA)) “active; positive”; (Test System: AMES SALMONELLA TYPHIMURIUM, Strain/Indicator: TA102, Metabolic Activation: RAT, LIVER, S-9, PCB, Method: PREINCUBATION (5 HR GROWTH PERIOD FOR BACTERIA)) “inactive; negative”; (Test System: AMES SALMONELLA TYPHIMURIUM, Strain/Indicator: TA102, Metabolic Activation: RAT, LIVER, S-9, PCB, Method: PREINCUBATION (7 HR GROWTH PERIOD FOR BACTERIA)) “active; positive”.
Regarding `CCOc1ccccc1C(N)=O`, the mutagenic call was “active; positive (structural changes)” (End Point: IN VITRO CHROMOSOMAL ABERRATIONS, Test System: CHL/IU CELLS, Metabolic Activation: NONE) and “active; positive” (End Point: IN VITRO MICRONUCLEUS, Test System: CHL/IU CELLS, Metabolic Activation: NONE).

Source of the values: PubChem BioAssay AID1259407 (Chemical Carcinogenesis Research Information System (CCRIS), 2018).
